Test results published in article PMC10687260, “1,3-Diphenylureido hydroxamate as a promising scaffold for generation of potent antimalarial histone deacetylase inhibitors” (Scientific Reports, 2023).

Columns and labels:
CYP450 2D6 = target: T1, CYP450 2D6 (Homo sapiens, UniProt P10635); experiment: CYP450 inhibition in human liver microsomes, 2D6; type: in vitro ADME; details: 10 µM
T1 construct: 10 μM compound was incubated with human liver microsomes and selective marker substrates; from tissue; host or cells: human liver microsomes
T1 sequence (P10635 whole entry): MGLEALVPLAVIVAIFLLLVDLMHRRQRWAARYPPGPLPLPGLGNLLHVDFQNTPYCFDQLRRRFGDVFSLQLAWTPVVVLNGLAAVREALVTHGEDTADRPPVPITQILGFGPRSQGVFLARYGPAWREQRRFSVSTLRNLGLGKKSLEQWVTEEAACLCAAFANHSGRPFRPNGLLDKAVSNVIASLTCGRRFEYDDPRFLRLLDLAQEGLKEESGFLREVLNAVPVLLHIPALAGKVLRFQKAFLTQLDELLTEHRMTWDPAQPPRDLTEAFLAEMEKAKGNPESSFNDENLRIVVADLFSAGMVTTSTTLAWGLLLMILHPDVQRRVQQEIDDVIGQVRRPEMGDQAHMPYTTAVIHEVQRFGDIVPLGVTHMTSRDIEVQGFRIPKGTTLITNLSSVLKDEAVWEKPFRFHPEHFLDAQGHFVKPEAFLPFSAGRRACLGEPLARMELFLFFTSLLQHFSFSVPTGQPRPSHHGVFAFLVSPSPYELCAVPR

CYP1A2 = target: T2, CYP1A2 (Homo sapiens, UniProt P05177); experiment: CYP450 inhibition in human liver microsomes, 1A2; type: in vitro ADME; details: 10 µM
T2 construct: 10 μM compound was incubated with human liver microsomes and selective marker substrates; from tissue; host or cells: human liver microsomes
T2 sequence (P05177 1-516): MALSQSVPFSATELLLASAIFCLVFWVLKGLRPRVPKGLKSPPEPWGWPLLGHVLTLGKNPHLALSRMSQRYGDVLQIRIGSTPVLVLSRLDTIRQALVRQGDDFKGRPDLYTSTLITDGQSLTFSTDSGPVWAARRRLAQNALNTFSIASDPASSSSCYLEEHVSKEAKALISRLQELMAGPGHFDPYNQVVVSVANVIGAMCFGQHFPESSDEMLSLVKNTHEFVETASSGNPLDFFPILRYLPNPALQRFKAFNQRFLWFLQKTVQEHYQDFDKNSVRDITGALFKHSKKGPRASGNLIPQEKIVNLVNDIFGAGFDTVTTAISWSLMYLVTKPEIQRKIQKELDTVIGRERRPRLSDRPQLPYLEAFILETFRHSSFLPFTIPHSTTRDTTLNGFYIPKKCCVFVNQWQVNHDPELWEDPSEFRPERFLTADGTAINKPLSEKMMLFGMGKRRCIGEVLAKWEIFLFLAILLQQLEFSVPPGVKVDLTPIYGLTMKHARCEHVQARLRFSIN

P. falciparum 3D7 = experiment: Antiplasmodial SYBR Green I proliferation assay, P. falciparum 3D7; type: cell-based, Plasmodium falciparum; details: Plasmodium falciparum, 3D7, 96 h, 96 h; values in brackets 95% confidence intervals; read-out: IC50 Pf3D7
Method in brief: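 SYBR Green I DNA-content proliferation assay on P. falciparum 3D7 and Dd2 in human O+ erythrocytes. Fluorescence after 1 h lysis with 0.02% SYBR Green I, scaled 0–100% against untreated parasites; curves by non-linear regression on means of three independent triplicate experiments.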

CYP450 2C9 = target: T3, CYP450 2C9 (Homo sapiens, UniProt P11712); experiment: CYP450 inhibition in human liver microsomes, 2C9; type: in vitro ADME; details: 10 µM
T3 construct: 10 μM compound was incubated with human liver microsomes and selective marker substrates; from tissue; host or cells: human liver microsomes
T3 sequence (P11712 whole entry): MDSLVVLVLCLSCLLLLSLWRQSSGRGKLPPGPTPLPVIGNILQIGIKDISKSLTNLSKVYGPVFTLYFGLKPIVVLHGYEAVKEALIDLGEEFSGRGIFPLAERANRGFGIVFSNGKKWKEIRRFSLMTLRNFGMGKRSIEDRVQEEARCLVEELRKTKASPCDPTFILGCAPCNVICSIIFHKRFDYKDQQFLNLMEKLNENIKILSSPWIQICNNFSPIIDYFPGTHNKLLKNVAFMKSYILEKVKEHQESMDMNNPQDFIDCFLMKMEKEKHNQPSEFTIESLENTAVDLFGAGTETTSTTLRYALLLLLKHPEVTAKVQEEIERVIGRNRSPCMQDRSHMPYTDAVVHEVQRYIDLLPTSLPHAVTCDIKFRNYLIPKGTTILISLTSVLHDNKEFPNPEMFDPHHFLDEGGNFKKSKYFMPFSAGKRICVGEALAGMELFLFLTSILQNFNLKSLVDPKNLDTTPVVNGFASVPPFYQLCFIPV

HepG2 cells = experiment: Cytotoxicity in human HepG2 cells (WST-1); type: cell-based; details: Homo sapiens, HepG2; 48 h, WST-1; read-out: IC50 HepG2
Method in brief: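 HepG2 cells (10^4/well, seeded overnight) were exposed to two-fold serial compound dilutions in fresh medium, then given WST-1 for 4 h. Formazan absorbance at 450 nm, with 630 nm background, was scaled 0–100% against untreated and DMSO controls.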

[1] = Stability in human hepatic microsomes; type: in vitro ADME; details: for half-life at 1 µM: 1 mg/mL hepatic microsomes, 1 µM compound, read-out: Half-life t1/2 Human; for microsomal CLint at 1 µM: read-out: Intrinsic clearance Clint Human
Text: (§1) DMPK evaluation. […].

human HDAC1 = target: T4, human HDAC1 (Homo sapiens, UniProt Q13547); experiment: In vitro HDAC enzymatic assay, HDAC1; type: biochemical; details: mean ± SD
T4 construct: purchased ENZO Life Sciences AG (Lausen, CH)
T4 sequence (Q13547 whole entry): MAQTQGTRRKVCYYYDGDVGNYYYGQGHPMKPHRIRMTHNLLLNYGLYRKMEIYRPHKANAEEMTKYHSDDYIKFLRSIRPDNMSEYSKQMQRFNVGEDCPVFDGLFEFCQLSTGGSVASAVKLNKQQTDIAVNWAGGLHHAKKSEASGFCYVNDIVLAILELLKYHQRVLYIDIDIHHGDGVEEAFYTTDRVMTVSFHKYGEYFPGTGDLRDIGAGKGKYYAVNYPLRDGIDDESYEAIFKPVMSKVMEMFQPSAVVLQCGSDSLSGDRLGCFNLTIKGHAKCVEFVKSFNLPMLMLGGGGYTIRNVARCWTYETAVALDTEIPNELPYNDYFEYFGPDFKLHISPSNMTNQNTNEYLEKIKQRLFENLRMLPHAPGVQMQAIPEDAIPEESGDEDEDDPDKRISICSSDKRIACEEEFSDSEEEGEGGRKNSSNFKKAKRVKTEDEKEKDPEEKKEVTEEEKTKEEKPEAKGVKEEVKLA
Method: (§2) In vitro HDAC enzymatic assays. Recombinant human HDAC1 and HDAC6 were purchased from ENZO Life Sciences AG (Lausen, CH) whereas HDAC8 was produced as described before. In vitro testing of the inhibitors in an enzymatic assay was carried out as described in previous publications[32],[33]. For HDAC1 a fluorogenic peptide derived from p53 (Ac-RHKK(Acetyl)-AMC) was used. For HDAC6, the substrate (Abz-SRGGK(thio-TFA)FFRR-NH2) was used as described before.

HDAC8 = target: T5, HDAC8 (Homo sapiens, UniProt Q9BY41); experiment: In vitro HDAC enzymatic assay, HDAC8; type: biochemical; details: mean ± SD
T5 construct: made in house
T5 sequence (Q9BY41 1-377): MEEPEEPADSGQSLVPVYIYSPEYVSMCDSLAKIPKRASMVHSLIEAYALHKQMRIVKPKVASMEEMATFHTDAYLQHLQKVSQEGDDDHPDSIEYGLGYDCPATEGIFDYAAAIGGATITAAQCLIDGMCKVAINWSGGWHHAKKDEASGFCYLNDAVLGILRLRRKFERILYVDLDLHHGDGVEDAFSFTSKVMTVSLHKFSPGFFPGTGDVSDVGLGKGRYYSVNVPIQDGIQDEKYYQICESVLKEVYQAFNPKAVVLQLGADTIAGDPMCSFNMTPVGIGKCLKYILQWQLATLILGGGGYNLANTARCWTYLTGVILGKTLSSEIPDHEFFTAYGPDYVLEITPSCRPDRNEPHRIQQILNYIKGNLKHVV
Method: as §2

[2] = Stability in mouse hepatic microsomes; type: in vitro ADME; details: for half-life at 1 µM: 1 mg/mL hepatic microsomes, 1 µM compound, read-out: Half-life t1/2 Mouse; for microsomal CLint at 1 µM: read-out: Intrinsic clearance Clint Mouse
Text: as §1

Row | SMILES | CYP450% inhibition @ 10 µM 2D6 (CYP450 2D6) | CYP450% inhibition @ 10 µM 1A2 (CYP1A2) | IC50 (P. falciparum 3D7) | CYP450% inhibition @ 10 µM 2C9 (CYP450 2C9) | IC50 (HepG2 cells) | half-life at 1 µM [1] | microsomal CLint at 1 µM [1] | IC50 (human HDAC1) | IC50 (HDAC8) | half-life at 1 µM [2] | microsomal CLint at 1 µM [2]
1 | O=C(Nc1ccccc1)Nc1ccc(C(=O)NO)cc1 [Compound 8a, N-hydroxy-4-(3-phenylureido)bezamide] | * (Inhibition < 10%) | 48% | 560 nM | * (Inhibition < 10%) | 56000 nM | > 120 min | < 6 µL/min/mg | 5330 ± 366 nM | 93.5 ± 5.3 nM | 10.1 min | 69 µL/min/mg
2 | COc1ccc(NC(=O)Nc2ccc(/C=C/C(=O)NO)cc2)cc1 [Compound 6c, (E)-N-hydroxi-3-(4-(3-(4-methoxyphenyl)ureido)phenyl)acrylamide] | *^b (Inhibition < 10%) | 32% | 1030 nM | 18% | 13300 nM | 39.6 min | 17 µL/min/mg | 1580 ± 62.2 nM | 63.7 ± 4.2 nM | 4.4 min | 158 µL/min/mg
3 | O=C(Nc1ccc(C(=O)NO)cc1)Nc1ccc([N+](=O)[O-])cc1 [Compound 8d, N-hydroxy-4-(3-(4-nitrophenyl)ureido)benzamide] | * (Inhibition < 10%) | * (Inhibition < 10%) | 550 nM | * (Inhibition < 10%) | 54000 nM | > 120 min | < 6 µL/min/mg | 3740 ± 232 nM | 68.1 ± 6.8 nM | 13.8 min | 50 µL/min/mg
4 | O=C(Nc1ccc(Cl)cc1)Nc1ccc(C(=O)NO)cc1 [Compound 8b, 4-(3-(4-chlorophenyl)ureido)-N-hydroxybenzamide] | * (Inhibition < 10%) | 42% | 1310 nM | * (Inhibition < 10%) | > 200000 nM | 66 min | 10 µL/min/mg | 5240 ± 476 nM | 85.1 ± 9.6 nM | 4 min | 173 µL/min/mg
5 | COc1ccc(NC(=O)Nc2ccc(C(=O)NO)cc2)cc1 [Compound 8c, N-hydroxy-4-(3–4(-methoxyphenyl)ureido)benzamide] | * (Inhibition < 10%) | * (Inhibition < 10%) | 740 nM | * (Inhibition < 10%) | > 200000 nM | 98.8 min | 7 µL/min/mg | 6180 ± 231 nM | 136 ± 8.2 nM | 2.5 min | 281 µL/min/mg
6 | COc1ccc(NC(=O)Nc2ccc(CCC(=O)NO)cc2)cc1 [Compound 7c, N-hydroxy-3-(4-(3-(4-methoxyphenyl)ureido)phenyl)propanamide] | * (Inhibition < 10%) | 22% | 5820 nM | * (Inhibition < 10%) | > 50000 nM | > 120 min | < 6 µL/min/mg | 3560 ± 185 nM | 362 ± 22.7 nM | 4.1 min | 169 µL/min/mg
